Read-outs that look alike come from different tables or passages of the source.
Experiments:
[1] = test system: lung cancer cell line NCI-H358 having the KRAS G12C variant; assay: Cancer cell growth inhibition, 3D spheroids (CellTiter-Glo 3D); format: cell-based; details: Homo sapiens, NCI-H358, 120 h; 3D spheroids, 0.002-10 µM, 5 days; read-out: H358 cell viability
Procedure: Thereafter, the plate with the cells cultured was adapted to room temperature for 10 minutes, and then 50 µL of CellTiter-Glo® 3D Cell Viability Assay (PROMEGA, G9683) solution was dispensed, and reacted on a horizontal stirrer at a speed of 300 RPM for 30 minutes to induce the cell lysis. […] Thereafter, based on the measured values, the degree of cell growth in the well treated with each compound was calculated when the final cell density value of the well not treated with the test substance was set to 100%.

[2] = target: T1, KRAS G12C::SOS1 (Homo sapiens, UniProt Q07889); assay: KRAS G12C::SOS1 protein-protein interaction (PPI) inhibition assay (HTRF); format: binding
T1 construct: purchased CISBIO 64KRASG12PEH
T1 sequence (Q07889 1-1333): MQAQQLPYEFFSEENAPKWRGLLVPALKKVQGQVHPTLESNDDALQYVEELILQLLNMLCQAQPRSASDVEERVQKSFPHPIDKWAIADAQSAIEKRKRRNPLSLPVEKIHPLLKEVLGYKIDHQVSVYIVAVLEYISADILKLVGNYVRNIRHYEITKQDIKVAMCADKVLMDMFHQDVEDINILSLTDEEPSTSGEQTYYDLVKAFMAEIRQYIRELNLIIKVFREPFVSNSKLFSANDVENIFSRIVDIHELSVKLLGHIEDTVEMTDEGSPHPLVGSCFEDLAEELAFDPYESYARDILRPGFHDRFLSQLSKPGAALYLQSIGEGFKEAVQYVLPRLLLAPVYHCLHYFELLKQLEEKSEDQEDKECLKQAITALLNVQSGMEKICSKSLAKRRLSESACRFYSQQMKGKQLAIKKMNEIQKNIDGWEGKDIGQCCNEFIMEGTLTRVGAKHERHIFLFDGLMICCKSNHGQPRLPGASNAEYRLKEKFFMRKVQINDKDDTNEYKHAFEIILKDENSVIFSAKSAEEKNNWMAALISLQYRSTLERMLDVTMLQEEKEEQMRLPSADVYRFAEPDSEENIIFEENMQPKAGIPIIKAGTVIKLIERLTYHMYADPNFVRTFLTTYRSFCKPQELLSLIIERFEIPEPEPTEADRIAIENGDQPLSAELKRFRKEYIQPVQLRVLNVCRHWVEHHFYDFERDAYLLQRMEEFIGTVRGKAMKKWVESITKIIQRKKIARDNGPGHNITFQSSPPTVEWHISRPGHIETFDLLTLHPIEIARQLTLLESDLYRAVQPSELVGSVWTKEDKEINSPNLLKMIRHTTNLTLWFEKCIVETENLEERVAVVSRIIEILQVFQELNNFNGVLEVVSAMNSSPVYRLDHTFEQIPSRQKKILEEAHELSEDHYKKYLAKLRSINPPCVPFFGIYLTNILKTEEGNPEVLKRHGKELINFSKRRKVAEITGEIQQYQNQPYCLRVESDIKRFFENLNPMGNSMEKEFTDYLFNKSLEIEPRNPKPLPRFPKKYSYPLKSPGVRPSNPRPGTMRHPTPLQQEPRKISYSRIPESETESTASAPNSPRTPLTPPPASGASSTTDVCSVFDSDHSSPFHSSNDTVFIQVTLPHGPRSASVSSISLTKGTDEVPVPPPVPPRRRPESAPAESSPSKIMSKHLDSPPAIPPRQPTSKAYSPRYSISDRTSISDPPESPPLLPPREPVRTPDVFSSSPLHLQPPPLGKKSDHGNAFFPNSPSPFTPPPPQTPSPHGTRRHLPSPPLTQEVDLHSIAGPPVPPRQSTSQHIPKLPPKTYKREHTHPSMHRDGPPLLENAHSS
Summary of the method: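 Compounds, at eight 3-fold dilutions from 3 µM, were mixed with GTP-loaded Tag1-KRAS G12C, Tag2-SOS1 and a terbium-cryptate donor plus XL665 acceptor antibody pair. After 2 h at room temperature, time-resolved FRET reported the KRAS–SOS1 interaction.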

[3] = target: T2, SOS1 (Homo sapiens, UniProt Q07889); assay: SOS-catalyzed nucleotide exchange assay (HTRF, SOS1-mediated GTP loading of KRAS G12D); format: biochemical
T2 construct: HIS-SOS1cat (160 nM; Cytoskeleton, US); His (N); purchased Cytoskeleton
T2 sequence (Q07889 564-1049 limits assumed): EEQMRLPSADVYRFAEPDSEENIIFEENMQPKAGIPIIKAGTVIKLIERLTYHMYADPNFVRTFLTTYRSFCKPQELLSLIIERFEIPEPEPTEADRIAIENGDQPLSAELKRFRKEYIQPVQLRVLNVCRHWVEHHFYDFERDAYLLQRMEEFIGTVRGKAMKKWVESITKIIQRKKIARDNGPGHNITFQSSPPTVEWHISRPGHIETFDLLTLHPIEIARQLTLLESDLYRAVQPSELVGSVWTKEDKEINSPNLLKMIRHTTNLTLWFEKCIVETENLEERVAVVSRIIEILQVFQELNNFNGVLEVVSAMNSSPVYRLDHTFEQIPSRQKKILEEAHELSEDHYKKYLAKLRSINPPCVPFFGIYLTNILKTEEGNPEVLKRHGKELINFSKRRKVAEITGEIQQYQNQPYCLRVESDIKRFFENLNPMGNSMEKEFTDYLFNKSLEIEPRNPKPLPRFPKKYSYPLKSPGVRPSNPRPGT

[4] = 8 concentrations from 3 µM, three replicates, read-out: KRAS G12C::SOS1 PPI
[5] = GST-KRAS G12D, HIS-SOS1cat, compound 128 pM to 10 µM, read-out: SOS-catalyzed nucleotide exchange assay

Row | IC50 [1] [nM] | IC50 [2, 4] [nM] | IC50 [3, 5] [nM] | SMILES | IC50 [2] [nM] | IC50 [3] [nM]
1 | < 1000 | – | – | [2H]C([2H])([2H])[C@@]([2H])(NC(=O)c1ccc(=O)n(-c2cncc(-c3cnnn3C)c2)n1)c1cccc(C(F)(F)F)c1F [Example 22, (R)-N-(1-(2-fluoro-3-(trifluoromethyl)phenyl)ethyl-1,2,2,2-tetradeuterio)-1-(5-(1-methyl-1H-1,2,3-triazol-5-yl)pyridin-3-yl)-6-oxo-1,6-dihydropyridazine-3-carboxamide] | – | –
2 | < 1000 | – | – | [2H]C([2H])([2H])n1nncc1-c1cncc(-n2nc(C(=O)N[C@H](C)c3cccc(C(F)(F)F)c3F)ccc2=O)c1 [Example 1-5, N-[(1R)-1-[2-fluoro-3-(trifluoromethyl)phenyl]ethyl]-6-oxo-1-[5-[3-(trideuteriomethyl)triazol-4-yl]-3-pyridyl]pyridazine-3-carboxamide] | – | –
3 | – | 50 to 150 | 50 to 150 | C[C@@H](NC(=O)c1cc(C#N)c(=O)n(-c2cc(-c3cnnn3C3CC3)cnc2F)n1)c1cccc(C(F)(F)F)c1F [Example 3-4, 5-cyano-N-[(1R)-1-[2-fluoro-3-(trifluoromethyl)phenyl]ethyl]-1-(5-(1-cyclopropyl-1H-1,2,3-triazol-5-yl)-2-fluoropyridin-3-yl)-6-oxo-1,6-dihydropyridazine-3-carboxamide] | – | –
4 | – | < 50 | < 50 | C[C@@H](NC(=O)c1ccc(=O)n(-c2cncc(-c3cnnn3[C@@H]3CCNC3)c2)n1)c1cccc(C(F)(F)F)c1F [Example 6-9, N-{(R)-1-[2-fluoro-3-(trifluoromethyl)phenyl]ethyl}-6-oxo-1-(5-(1-((R)-pyrrolidin-3-yl)-1H-1,2,3-triazol-5-yl)pyridin-3-yl)-1,6-dihydropyridazine-3-carboxamide] | – | –
5 | – | < 50 | < 50 | C[C@@H](NC(=O)c1ccc(=O)n(-c2cncc(-c3cnnn3C3CCN(C)CC3)c2)n1)c1cccc(C(F)(F)F)c1F [Example 20-6, (R)-N-(1-(2-fluoro-3-(trifluoromethyl)phenyl)ethyl)-1-(5-(1-(1-methylpiperidin-4-yl)-1H-1,2,3-triazol-5-yl)pyridin-3-yl)-6-oxo-1,6-dihydropyridazine-3-carboxamide] | – | –
6 | – | < 50 | 50 to 150 | [2H]c1cc(C(=O)N[C@H](C)c2cccc(C(F)(F)F)c2F)nn(-c2cncc(-c3cnnn3C)c2)c1=O [Example 1-38, N-{(R)-1-[2-fluoro-3-(trifluoromethyl)phenyl]ethyl}-1-[5-(1-methyl-1H-1,2,3-triazol-5-yl)-3-pyridyl]-6-oxo-1,6-dihydropyridazine-5-deuterio-3-carboxamide] | – | –
7 | – | < 50 | < 50 | C[C@@H](NC(=O)c1ccc(=O)n(-c2cncc(-c3cnnn3C3CCN(S(C)(=O)=O)CC3)c2)n1)c1cccc(C(F)(F)F)c1F [Example 20-8, (R)-N-(1-(2-fluoro-3-(trifluoromethyl)phenyl)ethyl)-1-(5-(1-(1-(methylsulfonyl)piperidine-4-yl)-1H-1,2,3-triazol-5-yl)pyridin-3-yl)-6-oxo-1,6-dihydropyridazine-3-carboxamide] | – | –
8 | – | 50 to 150 | 50 to 150 | [2H]C([2H])([2H])[C@@H](NC(=O)c1ccc(=O)n(-c2cncc(-c3cnnn3C)c2)n1)c1cccc(C(F)(F)F)c1F [Example 1-35, N-{(R)-1-[2-fluoro-3-(trifluoromethyl)phenyl]-ethyl-(2,2,2-trideuterio)}-1-[5-(1-methyl-1H-1,2,3-triazol-5-yl)-3-pyridyl]-6-oxo-pyridazine-3-carboxamide] | – | –

More lines, now with the values behind:

Row | SMILES | IC50 [1] [nM] | IC50 [2, 4] [nM] | IC50 [3, 5] [nM] | IC50 [2] [nM] | IC50 [3] [nM]
9 | C[C@@H](NC(=O)c1ccc(=O)n(-c2cncc(-c3cnnn3C3CCNCC3)c2)n1)c1cccc(C(F)(F)F)c1F [Example 20-4, N-[(1R)-1-[2-fluoro-3-(trifluoromethyl)phenyl]ethyl]-6-oxo-1-[5-[3-(4-piperidyl)triazol-4-yl]-3-pyridyl]pyridazine-3-carboxamide] | – | – | – | 50 to 150 | < 50
10 | C[C@@H](NC(=O)c1ccc(=O)n(-c2cncc(-c3cnnn3[C@H]3CCNC3)c2)n1)c1cccc(C(F)(F)F)c1F [Example 20-5, N-[(1R)-1-[2-fluoro-3-(trifluoromethyl)phenyl]ethyl]-6-oxo-1-[5-[3-[(3S)-pyrrolidin-3-yl]triazol-4-yl]-3-pyridyl]pyridazine-3-carboxamide] | – | – | – | 50 to 150 | 50 to 150
11 | C[C@@H](NC(=O)c1ccc(=O)n(-c2cncc(-c3cnnn3[C@@H]3CC3(F)F)c2)n1)c1cccc(C(F)(F)F)c1F [Example 24, 1-[5-[3-[(1R)-2,2-difluorocyclopropyl]triazol-4-yl]-3-pyridyl]-N-[(1R)-1-[2-fluoro-3-(trifluoromethyl)phenyl]ethyl]-6-oxo-pyridazine-3-carboxamide] | – | – | – | > 150 | 50 to 150
12 | [2H]c1cc(C(=O)N[C@H](C)c2cccc(C(F)(F)CO)c2F)nn(-c2cncc(-c3cnnn3C3CC3)c2)c1=O [Example 1-43] | – | < 50 | < 50 | – | –
13 | C[C@@H](NC(=O)c1cc(C(F)(F)F)c(=O)n(-c2cncc(-c3cnnn3C)c2)n1)c1cccc(C(F)(F)F)c1F [Example 1-69, N-[(R)-1-[2-fluoro-3-(trifluoromethyl)phenyl]ethyl]-1-[5-(1-methyl-1H-1,2,3-triazol-5-yl)-3-pyridyl]-6-oxo-5-(trifluoromethyl)-pyridazine-3-carboxamide] | – | < 50 | 50 to 150 | – | –
14 | C[C@@H](NC(=O)c1ccc(=O)n(-c2cnnc(-c3cnnn3C)c2)n1)c1cccc(C(F)F)c1F [Example 5, N-[(1R)-1-[2-fluoro-3-(difluoromethyl)phenyl]ethyl]-1-[6-(3-methyltriazol-4-yl)pyridazin-4-yl]-6-oxo-pyridazine-3-carboxamide] | – | – | – | > 150 | > 150
15 | Cc1cc(C(=O)N[C@H](C)c2cccc(C(F)(F)F)c2F)cn(-c2cncc(-c3cnnn3C)c2)c1=O [Example 1-21, (R)-N-(1-(2-fluoro-3-(trifluoromethyl)phenyl)ethyl)-3-methyl-5'-(1-methyl-1H-1,2,3-triazol-5-yl)-2-oxo-2H-[1,3'-bipyridine]-5-carboxamide] | – | < 50 | < 50 | – | –
16 | C[C@@H](NC(=O)c1cc(F)c(=O)n(-c2cncc(-c3cnnn3C)c2)c1)c1cccc(C(F)(F)F)c1F [Example 1-30, (R)-3-fluoro-N-(1-(2-fluoro-3-(trifluoromethyl)phenyl)ethyl)-5'-(1-methyl-1H-1,2,3-triazol-5-yl)-2-oxo-2H-[1,3'-bipyridine]-5-carboxamide] | – | > 150 | > 150 | – | –
17 | C[C@@H](NC(=O)c1cc(C#N)c(=O)n(-c2cc(-c3cnnn3C)cnc2F)n1)c1cccc(C(F)(F)CO)c1F [Example 3-3] | – | < 50 | < 50 | – | –

— EP4667464A1 (Cyrus Therapeutics Inc., priority 2023, dated 2024)
